Consider one compound from US20220132758A1, “INTRODUCTION OF ACTIVE SUBSTANCES AND/OR DYE INTO PLANT TISSUE” (priority 2018, published 2022).

This test deals with bark beetle. Put plainly: Imidacloprid-impregnated beech shaped pieces shot into bark beetle-infested spruce trees. The format is in vivo. The following applies: 7% imidacloprid solution; 8 pieces per tree; after 3 weeks; bark 10 to 50 cm above the shooting sites. How it is done:
24 shaped pieces according to FIG. 1c, Z-. X-. Y-direction 45×13×3 mm, angle α 90°, angle β 60°, made of beech wood (Fagus sylvatica) were impregnated with a neonicotinoid, a 7% imidacloprid solution (solvent dichloromethane) and then dried. The chips were shot 8 at a time into bark beetle-infested spruce trees using a gas cramping device (Alsafix AGRAFEUSE SANS FIL 12GASCR). After 3 weeks, the bark in the region 10 to 50 cm above the shooting sites was removed and the feeding tunnels exposed.

With `O=[N+]([O-])NC1=NCCN1Cc1ccc(Cl)nc1` [imidacloprid], the “living larvae in feeding tunnels” value is listed as “No living larvae were found”.
